# Results as given in patent US9630961B2, “Arginine methyltransferase inhibitors and uses thereof” (Epizyme, Inc., priority 2013, dated 2017).
# Experiments:
# [1] = system: mono-methyl arginine in RKO cells; test: RKO Methylation Assay, In Cell Western for mono-methyl arginine and DNA content; assay type: cell-based; conditions: Homo sapiens, 72 hours, percent activation of mono-methyl arginine signal
# Source text: RKO Methylation Assay RKO adherent cells were purchased from ATCC (American Type Culture Collection), Manassas, Va., USA. DMEM/Glutamax medium, penicillin-streptomycin, heat inactivated fetal bovine serum, 0.05% trypsin and D-PBS were purchased from Life Technologies, Grand Island, N.Y., USA. Odyssey blocking buffer, 800CW goat anti-rabbit IgG (H+L) antibody, and Licor Odyssey infrared scanner were purchased from Licor Biosciences, Lincoln, Nebr., USA. Mono-methyl arginine antibody was purchased from Cell Signaling Technology, Danvers, Mass., USA. Methanol was purchased from VWR, Franklin, Mass., USA. 10% Tween 20 was purchased from KPL, Inc., Gaithersburg, Md., USA. DRAQ5 was purchased from Biostatus Limited, Leicestershire, UK. RKO adherent cells were maintained in growth medium (DMEM/Glutamax medium supplemented with 10% v/v heat inactivated fetal bovine serum and 100 units/mL penicillin-streptomycin) and cultured at 37° C. under 5% CO2. Cell Treatment, in Cell Western (ICW) for Detection of Mono-Methyl Arginine and DNA Content. RKO cells were seeded in assay medium at a concentration of 20,000 cells per mL to a poly-D-lysine coated 384 well culture plate (BD Biosciences 356697) with 50 μL per well. Compound (100 nL) from a 96-well source plate was added directly to 384 well cell plate. Plates were incubated at 37° C., 5% CO2 for 72 hours. After three days of incubation, plates were brought to room temperature outside of the incubator for ten minutes and blotted on paper towels to remove cell media. 50 μL of ice cold 100% methanol was added directly to each well and incubated for 30 min at room temperature. After 30 min, plates were transferred to a Biotek EL406 plate washer and washed 2 times with 100 μL per well of wash buffer (IX PBS). Next 60 μL per well of Odyssey blocking buffer (Odyssey Buffer with 0.1% Tween 20 (v/v)) were added to each plate and incubated 1 hour at room temperature. Blocking buffer was removed and 20 μL per well of primary antibody was added (mono-methyl arginine diluted 1:200 in Odyssey buffer with 0.1% Tween 20 (v/v)) and plates were incubated overnight (16 hours) at 4° C. Plates were washed 5 times with 100 μL per well of wash buffer. Next 20 μL per well of secondary antibody was added (1:200 800CW goat anti-rabbit IgG (H+L) antibody, 1:1000 DRAQ5 (Biostatus limited) in Odyssey buffer with 0.1% Tween 20 (v/v)) and incubated for 1 hour at room temperature. The plates were washed 5 times with 100 μL per well wash buffer then 2 times with 100 μL per well of water. Plates were allowed to dry at room temperature then imaged on the Licor Odyssey machine which measures integrated intensity at 700 nm and 800 nm wavelengths. Both 700 and 800 channels were scanned. Calculations: First, the ratio for each well was determined by: Each plate included fourteen control wells of DMSO only treatment (minimum activation) as well as fourteen control wells for maximum activation treated with 20 μM of a reference compound. The average of the ratio values for each control type was calculated and used to determine the percent activation for each test well in the plate. Reference compound was serially diluted three-fold in DMSO for a total of nine test concentrations, beginning at 20 μM. Percent activation was determined and EC30 curves were generated using triplicate wells per concentration of compound.
# [2] = biological target: T1, PRMT6 (Homo sapiens, UniProt Q96LA8); test: PRMT6 Biochemical Assay (3H-SAM Flashplate, peptide substrate); conditions: 30 min preincubation, room temperature
# T1 construct: Flag-PRMT6-His; made in house; host or cells: HEK 293F cells (BacMam virus)
# Source text: S-adenosylmethionine (SAM), S-adenosylhomocysteine (SAH), bicine, Tween20, dimethylsulfoxide (DMSO), bovine skin gelatin (BSG), sodium butyrate and Tris(2-carboxyethyl)phosphine hydrochloride solution (TCEP) were purchased from Sigma-Aldrich at the highest level of purity possible. ^3H-SAM was purchase from American Radiolabeled Chemicals with a specific activity of 80 Ci/mmol. 384-well streptavidin Flashplates were purchased from PerkinElmer.
# Peptide representative of human histone H4 residues 36-50 was synthesized with an N-terminal linker-affinity tag motif and a C-terminal amide cap by 21st Century Biochemicals. The peptide was purified by high-performance liquid chromatography (HPLC) to greater than 95% purity and confirmed by liquid chromatography mass spectrometry (LC-MS). The sequence was Biot-Ahx-[…]-amide and contained a monomethylated lysine at position 44 (SEQ ID NO.:5).
# Full-length human PRMT6 (NM_018137.2) transcript clone was amplified from an HEK 293 cDNA library, incorporating a flanking 5′ sequence encoding a FLAG tag ([…]) (SEQ ID NO.:6) fused directly to Ser 2 of PRMT6 and a 3′ sequence encoding a hexa His sequence (HHHHHH) fused directly to Asp 375. The amplified gene was subcloned into pFastBacMam (Viva Biotech).
# Recombinant baculovirus were generated according to Bac-to-Bac kit instructions (Life Technologies). […] Infections were carried out at 37° C. for 48 hours, harvested by centrifugation, and stored at −80° C. for purification.
# Column was washed with 20 mM imidazole in the same buffer and Flag-PRMT6-His was eluted with 150 mM imidazole. Pooled fractions were dialysed against buffer Ni-A and further purified by anti-flag M2 affinity chromatography. Flag-PRMT6-His was eluted with 200 ug/ml FLAG peptide in the same buffer. Pooled fractions were dialysed in 20 mM Tris, 150 mM NaCl, 10% glycerol and 5 mM β-mercaptoethanol, pH 7.8. The purity of recovered protein was 95%.
# General Procedure for PRMT6 Enzyme Assays on Peptide Substrates.
# The assays were all performed in a buffer consisting of 20 mM Bicine (pH=7.6), 1 mM TCEP, 0.005% BSG, and 0.002% Tween 20, prepared on the day of use. Compounds in 100% DMSO (1 ul) were spotted into a polypropylene 384-well V-bottom plates (Greiner) using a Platemate Plus outfitted with a 384-channel head (Thermo Scientific). DMSO (1 ul) was added to Columns 11, 12, 23, 24, rows A-H for the maximum signal control and 1 ul of SAH, a known product and inhibitor of PRMT6, was added to columns 11, 12, 23, 24, rows I-P for the minimum signal control. A cocktail (40 ul) containing the PRMT6 enzyme was added by Multidrop Combi (Thermo-Fisher). The compounds were allowed to incubate with PRMT6 for 30 min at room temperature, then a cocktail (10 ul) containing SAM and peptide was added to initiate the reaction (final volume=51 ul). The final concentrations of the components were as follows: PRMT6 was 1 nM, ^3H-SAM was 200 nM, non-radiolabeled SAM was 250 nM, peptide was 75 nM, SAH in the minimum signal control wells was 1 mM, and the DMSO concentration was 2%. The assays were stopped by the addition of non-radiolabeled SAM (10 ul) to a final concentration of 400 uM, which dilutes the ^3H-SAM to a level where its incorporation into the peptide substrate is no longer detectable. 50 ul of the reaction in the 384-well polypropylene plate was then transferred to a 384-well Flashplate and the biotinylated peptides were allowed to bind to the streptavidin surface for at least 1 hour before being washed once with 0.1% Tween20 in a Biotek ELx405 plate washer. The plates were then read in a PerkinElmer TopCount plate reader to measure the quantity of ^3H-labeled peptide bound to the Flashplate surface, measured as disintegrations per minute (dpm) or alternatively, referred to as counts per minute (cpm).
# Where dpm=disintegrations per minute, cmpd=signal in assay well, and min and max are the respective minimum and maximum signal controls. […]
# T1 sequence (Q96LA8 with tags, fused parts or gaps): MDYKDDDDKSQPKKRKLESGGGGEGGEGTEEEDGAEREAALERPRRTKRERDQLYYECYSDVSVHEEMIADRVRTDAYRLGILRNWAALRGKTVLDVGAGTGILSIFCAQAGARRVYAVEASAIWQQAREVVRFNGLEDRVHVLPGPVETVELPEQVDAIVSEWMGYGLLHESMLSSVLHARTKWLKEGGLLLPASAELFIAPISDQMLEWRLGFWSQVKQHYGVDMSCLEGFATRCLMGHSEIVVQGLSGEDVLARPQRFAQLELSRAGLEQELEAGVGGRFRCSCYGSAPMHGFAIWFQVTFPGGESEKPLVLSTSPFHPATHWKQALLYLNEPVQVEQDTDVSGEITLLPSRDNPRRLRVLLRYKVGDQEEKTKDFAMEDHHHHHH
compound,measurement,setting,value
Cc1nn(C)c(C)c1-c1n[nH]cc1CN(C)CCN [Compound 26],EC30,[1],≥ 12 µM
same,IC50,[2],≥ 10 µM
